Target: Arabidopsis thaliana SHMT
Test: SHMT activity assay (ED50 SHMT), coupled with N5,N10-CH2-THF dehydrogenase, NADH at 340 nm
Format: biochemical
Details: Arabidopsis thaliana SHMT enzyme assay; values given as upper bounds
Method in brief: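 His-tagged SHMT purified on Ni-NTA. NADH formation followed at 340 nm for 30 min; ED50 from inhibition of initial velocity.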

Row | EC50 | SMILES
1 | < 100 nM | Cc1n[nH]c2c1C(c1cc(C#N)cc(-c3cc(C(=O)O)cs3)c1)(C(C)C)C(C#N)=C(N)O2 (stereo not shown) [Compound 2.686]
2 | < 100 nM | Cc1n[nH]c2c1C(c1cc(C#N)cc(C#N)c1)(C(C)F)C(C#N)=C(N)O2 (stereo not shown) [Compound 2.687]
3 | < 1000 nM | Cc1n[nH]c2c1C(c1cc(CN)cc(N(C)C(=O)CCCC(=O)O)c1)(C(C)C)C(C#N)=C(N)O2 (stereo not shown) [Compound 2.689]
4 | < 1000 nM | Cc1n[nH]c2c1C(c1cc(-c3nnn[nH]3)cc(N(C)C(=O)CCCC#N)c1)(C1CCC1)C(C#N)=C(N)O2 (stereo not shown) [Compound 2.690]
5 | < 100 nM | Cc1n[nH]c2c1C(c1cc(C#N)cc(N(C)Cc3nnn[nH]3)c1)(C1CCC1)C(C#N)=C(N)O2 (stereo not shown) [Compound 2.691]
6 | < 1000 nM | Cc1n[nH]c2c1C(c1cc(-c3nnn[nH]3)cc(N(C)CCC#N)c1)(C1CCC1)C(C#N)=C(N)O2 (stereo not shown) [Compound 2.692]
7 | < 100 nM | Cc1n[nH]c2c1C(c1cc(C#N)cc(N(C)CC(=O)O)c1)(C1CCC1)C(C#N)=C(N)O2 (stereo not shown) [Compound 2.693]
8 | < 10 nM | Cc1n[nH]c2c1C(c1cc(C#N)cc(N(C)C(=O)CCCC(=O)O)c1)(C(C)C)C(C#N)=C(N)O2 (stereo not shown) [Compound 2.694]
9 | < 100 nM | Cc1n[nH]c2c1C(c1cc(C#N)cc(N(C)CCCC(=O)O)c1)(C1CCC1)C(C#N)=C(N)O2 (stereo not shown) [Compound 2.695]
10 | < 10 nM | Cc1n[nH]c2c1C(c1cc(Cl)cc(N(C)C(=O)CC#N)c1)(C1CCC1)C(C#N)=C(N)O2 (stereo not shown) [Compound 2.696]
11 | < 100 nM | Cc1n[nH]c2c1C(c1cc(Cl)cc(N(C)C(=O)CCC#N)c1)(C1CCC1)C(C#N)=C(N)O2 (stereo not shown) [Compound 2.697]
12 | < 100 nM | Cc1n[nH]c2c1C(c1cc(Cl)cc(N(C)C(=O)CCc3nnn[nH]3)c1)(C1CCC1)C(C#N)=C(N)O2 (stereo not shown) [Compound 2.698]
13 | < 100 nM | Cc1n[nH]c2c1C(c1cc(Cl)cc(N(C)C(=O)Cc3nnn[nH]3)c1)(C1CCC1)C(C#N)=C(N)O2 (stereo not shown) [Compound 2.699]
14 | < 100 nM | Cc1n[nH]c2c1C(c1cc(Cl)cc(N(C)C(=O)CCCC#N)c1)(C1CCC1)C(C#N)=C(N)O2 (stereo not shown) [Compound 2.700]
15 | < 100 nM | Cc1n[nH]c2c1C(c1cc(Cl)cc(N(C)C(=O)CCCc3nnn[nH]3)c1)(C1CCC1)C(C#N)=C(N)O2 (stereo not shown) [Compound 2.701]
16 | < 100 nM | Cc1n[nH]c2c1C(c1cccc(Br)c1)(C(C)(F)F)C(C#N)=C(N)O2 (stereo not shown) [Compound 2.702]
17 | < 100 nM | Cc1n[nH]c2c1C(c1cc(Br)cc(Br)c1)(C1CC(F)(F)C1)C(C#N)=C(N)O2 (stereo not shown) [Compound 2.703]
18 | < 100 nM | Cc1n[nH]c2c1C(c1cc(C#N)cc(NS(C)(=O)=O)c1)(C1CCC1)C(C#N)=C(N)O2 (stereo not shown) [Compound 2.704]
19 | < 10 nM | COC(=O)c1ccc(-c2cc(C#N)cc(C3(C(C)C)C(C#N)=C(N)Oc4[nH]nc(C)c43)c2)s1 (stereo not shown) [Compound 2.705]
20 | < 10 nM | COC(=O)c1ccc(-c2cc(C#N)cc(C3(C(C)C)C(C#N)=C(N)Oc4[nH]nc(C)c43)c2)o1 (stereo not shown) [Compound 2.706]
21 | < 1000 nM | Cc1n[nH]c2c1C(c1cc(C#N)cc(C#N)c1)(C1CC(F)(F)C1)C(C#N)=C(N)O2 (stereo not shown) [Compound 2.707]
22 | < 10000 nM | Cc1n[nH]c2c1C(c1ccc(CC#N)c(-c3nnn[nH]3)c1)(C1CCC1)C(C#N)=C(N)O2 (stereo not shown) [Compound 2.708]
23 | < 100 nM | Cc1n[nH]c2c1C(c1cc(CCC#N)cc(-c3nnn[nH]3)c1)(C(C)C)C(C#N)=C(N)O2 (stereo not shown) [Compound 2.710]

Row | EC50 | SMILES
24 | < 100 nM | Cc1n[nH]c2c1C(c1cc(CCCC#N)cc(-c3nnn[nH]3)c1)(C(C)C)C(C#N)=C(N)O2 (stereo not shown) [Compound 2.711]
25 | < 100 nM | Cc1n[nH]c2c1C(c1cc(C#N)cc(C#N)c1)(C1CC(F)C1)C(C#N)=C(N)O2 (stereo not shown) [Compound 2.714]
26 | < 1000 nM | Cc1n[nH]c2c1C(c1cc(CCCc3nnn[nH]3)cc(-c3nnn[nH]3)c1)(C(C)C)C(C#N)=C(N)O2 (stereo not shown) [Compound 2.715]
27 | < 10000 nM | Cc1n[nH]c2c1C(c1cc(CCc3nnn[nH]3)cc(-c3nnn[nH]3)c1)(C(C)C)C(C#N)=C(N)O2 (stereo not shown) [Compound 2.716]
28 | < 100 nM | Cc1n[nH]c2c1C(c1cc(C#N)cc(N(C)C(=O)c3cccc(C(=O)O)c3)c1)(C(C)C)C(C#N)=C(N)O2 (stereo not shown) [Compound 2.717]
29 | < 100 nM | Cc1n[nH]c2c1C(c1cc(C#N)cc(N(C)C(=O)CCc3nnn[nH]3)c1)(C1CCC1)C(C#N)=C(N)O2 (stereo not shown) [Compound 2.718]
30 | < 100 nM | CCOC(=O)CS(=O)(=O)N(C)c1cc(C#N)cc(C2(C3CCC3)C(C#N)=C(N)Oc3[nH]nc(C)c32)c1 (stereo not shown) [Compound 2.719]
31 | < 100 nM | Cc1n[nH]c2c1C(c1cc(C#N)cc(N(C)C(=O)Cc3nnn[nH]3)c1)(C(C)C)C(C#N)=C(N)O2 (stereo not shown) [Compound 2.721]
32 | < 100 nM | Cc1n[nH]c2c1C(c1cc(C#N)cc(N(C)C(=O)CCCc3nnn[nH]3)c1)(C(C)C)C(C#N)=C(N)O2 (stereo not shown) [Compound 2.722]
33 | < 100 nM | COC(=O)CCS(=O)(=O)N(C)c1cc(C#N)cc(C2(C3CCC3)C(C#N)=C(N)Oc3[nH]nc(C)c32)c1 (stereo not shown) [Compound 2.723]
34 | < 100 nM | Cc1n[nH]c2c1C(c1cc(C#N)cc(N(C)S(=O)(=O)CC#N)c1)(C1CCC1)C(C#N)=C(N)O2 (stereo not shown) [Compound 2.724]
35 | < 100 nM | CCOC(=O)CS(=O)(=O)N(C)c1cc(C#N)cc(C2(C(C)C)C(C#N)=C(N)Oc3[nH]nc(C)c32)c1 (stereo not shown) [Compound 2.725]
36 | < 100 nM | COC(=O)CCS(=O)(=O)N(C)c1cc(C#N)cc(C2(C(C)C)C(C#N)=C(N)Oc3[nH]nc(C)c32)c1 (stereo not shown) [Compound 2.726]
37 | < 100 nM | Cc1n[nH]c2c1C(c1cc(C#N)cc(N(C)C(=O)CCCc3nnn[nH]3)c1)(C1CCC1)C(C#N)=C(N)O2 (stereo not shown) [Compound 2.727]
38 | < 10 nM | Cc1n[nH]c2c1C(c1cc(Br)cc(N(C)C(=O)Cc3nnn[nH]3)c1)(C1CCC1)C(C#N)=C(N)O2 (stereo not shown) [Compound 2.730]
39 | < 100 nM | Cc1n[nH]c2c1C(c1cc(C#N)cc(N(C)S(=O)(=O)CC(=O)O)c1)(C1CCC1)C(C#N)=C(N)O2 (stereo not shown) [Compound 2.731]
40 | < 100 nM | Cc1n[nH]c2c1C(c1cc(C#N)cc(N(C)S(=O)(=O)CC(=O)O)c1)(C(C)C)C(C#N)=C(N)O2 (stereo not shown) [Compound 2.732]
41 | < 100 nM | Cc1n[nH]c2c1C(c1cc(C#N)cc(NS(=O)(=O)C(F)(F)F)c1)(C1CCC1)C(C#N)=C(N)O2 (stereo not shown) [Compound 2.733]
42 | < 100 nM | Cc1n[nH]c2c1C(c1ccc(CCc3nnn[nH]3)c(C#N)c1)(C(C)C)C(C#N)=C(N)O2 (stereo not shown) [Compound 2.734]
43 | < 10000 nM | Cc1n[nH]c2c1C(c1cc(Cc3nnn[nH]3)cc(-c3nnn[nH]3)c1)(C(C)C)C(C#N)=C(N)O2 (stereo not shown) [Compound 2.735]
44 | < 1000 nM | Cc1n[nH]c2c1C(c1ccc(CCC#N)c(-c3nnn[nH]3)c1)(C(C)C)C(C#N)=C(N)O2 (stereo not shown) [Compound 2.736]
45 | < 100 nM | Cc1n[nH]c2c1C(c1cc(C#N)cc(Cc3nnn[nH]3)c1)(C(C)C)C(C#N)=C(N)O2 (stereo not shown) [Compound 2.738]

Same assay, conditions: inhibition of initial velocity of Arabidopsis thaliana SHMT

Row | EC50 | SMILES
46 | < 10000 nM | CCC1(c2cc(F)c(F)cc2F)C(C#N)=C(N)Oc2[nH]nc(C)c21 (stereo not shown) [Compound 3.3]
47 | < 10000 nM | CCC1(c2cc(F)cc(F)c2F)C(C#N)=C(N)Oc2[nH]nc(C)c21 (stereo not shown) [Compound 3.4]
48 | < 10 nM | Cc1n[nH]c2c1C(c1ccc(-c3cccs3)s1)(C1CCC1)C(C#N)=C(N)O2 (stereo not shown) [Compound 4.1]
49 | < 10 nM | Cc1n[nH]c2c1C(c1ccc(-c3ccco3)s1)(C1CCC1)C(C#N)=C(N)O2 (stereo not shown) [Compound 4.3]
50 | < 10 nM | Cc1n[nH]c2c1C(c1cc(Cl)c3c(c1)OCCO3)(C1CCC1)C(C#N)=C(N)O2 (stereo not shown) [Compound 4.5]
51 | < 10 nM | Cc1n[nH]c2c1C(c1ccc(-c3cccc(Cl)c3)s1)(C1CCC1)C(C#N)=C(N)O2 (stereo not shown) [Compound 4.6]
52 | < 10 nM | Cc1n[nH]c2c1C(c1cc3cc(Cl)ccc3o1)(C1CCC1)C(C#N)=C(N)O2 (stereo not shown) [Compound 4.7]
53 | < 10 nM | Cc1n[nH]c2c1C(c1ccc(-c3ccc(F)cc3)s1)(C1CCC1)C(C#N)=C(N)O2 (stereo not shown) [Compound 4.8]
54 | < 10 nM | Cc1n[nH]c2c1C(c1cc3cc(Cl)ccc3s1)(C1CCC1)C(C#N)=C(N)O2 (stereo not shown) [Compound 4.9]
55 | < 10 nM | Cc1n[nH]c2c1C(c1ccc(-c3ccccc3)s1)(C1CCC1)C(C#N)=C(N)O2 (stereo not shown) [Compound 4.10]
56 | < 10 nM | Cc1n[nH]c2c1C(c1cncc(Cl)c1)(C1CCC1)C(C#N)=C(N)O2 (stereo not shown) [Compound 4.11]
57 | < 10 nM | Cc1n[nH]c2c1C(c1cc(Cl)c3c(c1)CCO3)(C1CCC1)C(C#N)=C(N)O2 (stereo not shown) [Compound 4.12]
58 | < 10 nM | Cc1ccc(-c2ccc(C3(C4CCC4)C(C#N)=C(N)Oc4[nH]nc(C)c43)s2)cc1 (stereo not shown) [Compound 4.13]
59 | < 10 nM | Cc1n[nH]c2c1C(c1ccc(-c3cccc(F)c3)s1)(C1CCC1)C(C#N)=C(N)O2 (stereo not shown) [Compound 4.14]
60 | < 10 nM | Cc1n[nH]c2c1C(c1cc(Cl)c3c(c1)OCCO3)(C(C)C)C(C#N)=C(N)O2 (stereo not shown) [Compound 4.15]
61 | < 10 nM | Cc1n[nH]c2c1C(c1cc(-c3cccs3)cs1)(C1CCC1)C(C#N)=C(N)O2 (stereo not shown) [Compound 4.16]
62 | < 10 nM | Cc1n[nH]c2c1C(c1ccc(-c3ccccc3F)s1)(C1CCC1)C(C#N)=C(N)O2 (stereo not shown) [Compound 4.17]
63 | < 10 nM | Cc1n[nH]c2c1C(c1ccc3c(c1)C(F)(F)CCO3)(C1CCC1)C(C#N)=C(N)O2 (stereo not shown) [Compound 4.18]
64 | < 10 nM | Cc1ccc2cc(C3(C4CCC4)C(C#N)=C(N)Oc4[nH]nc(C)c43)cc(C(F)(F)F)c2n1 (stereo not shown) [Compound 4.19]
65 | < 10 nM | Cc1n[nH]c2c1C(c1ccc(-c3ccc(Cl)cc3)s1)(C1CCC1)C(C#N)=C(N)O2 (stereo not shown) [Compound 4.20]
66 | < 10 nM | Cc1n[nH]c2c1C(c1cc3cc(C(F)(F)F)ccc3s1)(C1CCC1)C(C#N)=C(N)O2 (stereo not shown) [Compound 4.22]
67 | < 10 nM | Cc1n[nH]c2c1C(c1cc(F)c3c(c1)C=CC(C)(C)O3)(C1CCC1)C(C#N)=C(N)O2 (stereo not shown) [Compound 4.23]
68 | < 10 nM | Cc1n[nH]c2c1C(c1cc(-c3ccccc3)cs1)(C1CCC1)C(C#N)=C(N)O2 (stereo not shown) [Compound 4.24]
69 | < 10 nM | Cc1n[nH]c2c1C(c1ccc3c(c1)OC(F)(F)O3)(C1CCC1)C(C#N)=C(N)O2 (stereo not shown) [Compound 4.25]
70 | < 10 nM | Cc1n[nH]c2c1C(c1ccc(-c3ccc(C(F)(F)F)cc3)s1)(C1CCC1)C(C#N)=C(N)O2 (stereo not shown) [Compound 4.26]

Source: patent publication US9480259B2, “Pyrazolopyrans having herbicidal and pharmaceutical properties” (BASF SE, priority 2012, dated 2016)
